We go through five compounds from patent US4963542A, “Cephalosporin derivatives” (Takeda Chemical Industries, Ltd., priority 1976, dated 1990).

Holding throughout (test): Minimal inhibitory concentration, agar serial dilution
Common to all, as to assay type: cell-based
What all share (settings): TSA, inoculum 10^7 /ml

Test [1] deals with Proteus rettgeri TN338. The source says: (§1) (a) Minimal inhibitory concentrations (Table 1 and 2)
(§2) Method: Agar serial dilution

The subject of test [2] is Klebsiella pneumoniae GN-3835.
Excerpt: as §1, §2

Test [3] has as its system Proteus vulgaris IFO 3988.
Excerpt: as §1, §2

In test [4] the test system is Citrobacter freundii GN99.
Excerpt: as §1, §2

In test [5] the test system is Staphylococcus aureus 1840.
Excerpt: as §1, §2

Test [6] relates to Escherichia coli T-7.
Excerpt: as §1, §2

Test [7] relates to Serratia marcescens IFO 12648.
Excerpt: as §1, §2

In test [8] the test system is Citrobacter freundii GN1706.
Excerpt: as §1, §2

For test [9], the system named is Escherichia coli 0-111.
Excerpt: as §1, §2

The test system of test [10] is Klebsiella pneumoniae DT.
Excerpt: as §1, §2

The test system of test [11] is Proteus vulgaris GN4413.
Excerpt: as §1, §2

The test system of test [12] is Staphylococcus aureus 209P.
Excerpt: as §1, §2

For test [13], the system named is Proteus rettgeri GN4733.
Excerpt: as §1, §2

Test [14] deals with Proteus morganii IFO3168.
Excerpt: as §1, §2

Test [15] relates to Proteus mirabilis GN4359.
Excerpt: as §1, §2

Test [16] concerns Escherichia coli NIHJ JC-2.
Excerpt: as §1, §2

Test [17] deals with Serratia marcescens TN24.
Excerpt: as §1, §2

Test [18] relates to Enterobacter cloacae TN1282.
Excerpt: as §1, §2

In the case of `N=c1[nH]c(/C(=N/O)C(=O)NC2C(=O)N3C(C(=O)O)=C(COC(N)=O)CSC23)cs1` (stereo not drawn) [Example 26, sodium 7-[2-(2-imino-4-thiazolin-4-yl)-2-hydroxyimino-acetamido]-3-carbamoyloxymethyl-3-cephem-4-carboxylate (syn-isomer)], the “Minimal inhibitory concentration (MIC)” value is not above 0.012 in test [1]; 0.05 in [2]; 0.10 in [3]; 0.05 in [4]; 0.78 in test [5]; 0.39 in [6]. The “Minimal inhibitory concentration (MIC)” value in test [7] was found to be 12.5; in test [8] it was 0.10; in test [9], 0.024; in test [10], 0.024; in test [11] it was 50; in test [12], 0.78. Besides, the “Minimal inhibitory concentration (MIC)” value in test [13] is reported as 0.024; in test [14], 0.39; in test [15] it was 0.05; in test [16] it was 0.05; in test [17] it was 1.56; in [18] it was 12.5.

For the compound `N=c1[nH]c(/C(=N/O)C(=O)NC2C(=O)N3C(C(=O)O)=C(CSc4cnn[nH]4)CSC23)cs1` (stereo not drawn) [Example 13, sodium 7-[2-(2-imino-4-thiazolin-4-yl)-2-hydroxyimino-acetamido]-3-(1,2,3-triazol-5-yl)thiomethyl-3-cephem-4-carboxylate (syn-isomer)], the “Minimal inhibitory concentration (MIC)” value is not above 0.012 in test [1]; 0.20 in test [2]; 0.10 in test [3]; 0.39 in test [4]; 0.78 in [5]; 0.78 in test [6]. The “Minimal inhibitory concentration (MIC)” value is on record as 12.5 in test [7]; 0.78 in test [8]; 0.05 in test [9]; 0.05 in test [10]; 50 in test [11]; 0.78 in test [12]. The “Minimal inhibitory concentration (MIC)” value in test [13] is recorded as 0.20; in test [14], 0.20; in test [15], 0.10; in test [16], 0.10; in test [17] it was 1.56; in test [18] it was 25.

Regarding `Cc1nsc(SCC2=C(C(=O)O)N3C(=O)C(NC(=O)/C(=N\O)c4csc(=N)[nH]4)C3SC2)n1` (stereo not drawn) [Example 14, sodium 7-[2-(2-imino-4-thiazoline-4-yl)-2-hydroxyimino-acetamido]-3-(3-methyl-1,2,4-thiadiazol-5-yl)thiomethyl-3-cephem-4-carboxylate (syn-isomer)], the “Minimal inhibitory concentration (MIC)” value stood at 0.024 in test [1]; 0.78 in test [2]; 0.10 in test [3]; 0.39 in test [4]; 0.78 in test [5]; 6.25 in test [7]. Further, the “Minimal inhibitory concentration (MIC)” value in test [8] was 0.78; in [9], 0.20; in [10], 0.20; in test [11], 1.56; in test [12] it was 0.39; in test [13] it was 0.39. Besides, the “Minimal inhibitory concentration (MIC)” value is given as 0.20 in test [14]; 0.39 in test [15]; 0.39 in [16]; 0.78 in test [17]; 6.25 in [18].

`Cc1nnc(SCC2=C(C(=O)[O-])N3C(=O)C(NC(=O)Cn4cnnn4)[C@H]3SC2)s1.[Na+]` (stereo partly shown) [Cefazolin, sodium 7-(1H-tetrazol-1-yl)acetamido-3-(2-methyl-1,3,4-thiadiazol-5-yl)thiomethyl-3-cephem-4-carboxylate, reference compound]: the “Minimal inhibitory concentration (MIC)” value in test [1] is on record as not above 0.2; in test [2], 6.25; in [3], 3.13; in test [4] it was 12.5; in test [5], 1.56; in [6], 50. For the same compound, the “Minimal inhibitory concentration (MIC)” value in test [7] is given as more than 100; in test [8] it was more than 100; in test [9], 1.56; in [10], 1.56; in test [11], more than 100; in test [12] it was 0.39. Besides, the “Minimal inhibitory concentration (MIC)” value in test [13] is 100; in test [14], 100; in test [15], 6.25; in test [16], 1.56; in test [17], more than 100.

Regarding `CC(=O)OCC1=C(C(=O)[O-])N2C(=O)C(NC(=O)Cc3cccs3)[C@H]2SC1.[Na+]` (stereo partly shown) [Cephalothin, sodium 7-(2-thienylacetamido)-3-acetoxymethyl-3-cephem-4-carboxylate, reference compound], the “Minimal inhibitory concentration (MIC)” value is reported as 1.56 in test [1]; 12.5 in [2]; 1.56 in test [3]; 25 in test [4]; 0.39 in test [5]; 100 in test [6]. For the same compound, the “Minimal inhibitory concentration (MIC)” value in test [7] was more than 100; in test [8] it was more than 100; in test [9], 3.13; in [10], 1.56; in [11], more than 100; in test [12], 0.20. Further, the “Minimal inhibitory concentration (MIC)” value in test [13] is recorded as more than 100; in [14], more than 100; in test [15], 3.13; in test [16], 12.5; in test [17], more than 100; in [18], more than 100.
